Experimental data published in patent US6828315B1, “1-Amino triazoloc4,3-a! quinazoline-5-ones and/or -5-thiones inhibiting phosphodiesterase IV” (Warner-Lambert LLC, priority 1999, dated 2004).

melting point [°C] | SMILES
193 | Cc1ccc2c(c1)c(=O)nc1n(CC=Cc3ccccc3)nc(N3CCCCCC3)n21 [Compound 157, 1-(azepan-1-yl)-7-methyl-3-(3-phenylallyl)-3H-[1,2,4]triazolo[4,3-a]quinazolin-5-one]
225 | Cc1ccc2c(c1)c(=O)nc1n(CC=Cc3ccccc3)nc(N3CCCC3)n21 [Compound 158, 7-methyl-3-(3-phenylallyl)-1-(pyrrolidin-1-yl)-3H-[1,2,4]triazolo[4,3-a]quinazolin-5-one]
255 | O=c1nc2n(CC=Cc3ccccc3)nc(N3CCCC3)n2c2ccc(O)cc12 [Compound 161, 7-hydroxy-3-(3-phenylallyl)-1-(pyrrolidin-1-yl)-3H-[1,2,4]triazolo[4,3-a]quinazolin-5-one]
112 | CCCCN(CCCC)c1nnc2n(C)c(=O)c3cc(Cl)ccc3n12 [Compound 167, 7-chloro-1-dibutylamino-4-methyl-4H-[1,2,4]triazolo[4,3-a]-quinazolin-5-one]
192 | Cn1c(=O)c2cc(Cl)ccc2n2c(N3CCCCC3)nnc12 [Compound 168, 7-chloro-4-methyl-1-(piperidin-1-yl)4H-[1,2,4]triazolo[4,3-a]-quinazolin-5-one]
180 to 182 | CN1CCN(c2nnc3n(C)c(=O)c4cc(Cl)ccc4n23)CC1 [Compound 169, 7-Chloro-4-methyl-1-(4-methyl-piperazin-1-yl)-4H-[1,2,4]triazolo[4,3-a]quinazolin-5-one]
185 | Cn1c(=O)c2cc(Cl)ccc2n2c(N3CC4CCC(C)(C3)C4(C)C)nnc12 (stereo not shown) [Compound 170, 7-Chloro-4-methyl-1-(1,8,8-trimethyl-3-aza-bicyclo[3.2.1]oct-3-yl)-4H-[1,2,4]triazolo[4,3-a]quinazolin-5-one]
162 | O=c1c2cc(Cl)ccc2n2c(N3CCCCCC3)nnc2n1Cc1ccccc1 [Compound 172, 1-(azepan-1-yl)-4-benzyl-7-chloro-4H-[1,2,4]triazolo[4,3-a]-quinazolin-5-one]
163 | O=c1c2cc(Cl)ccc2n2c(N3CCCC3)nnc2n1Cc1ccccc1 [Compound 173, 4-benzyl-7chloro-1-(pyrrolidin-1-yl)-4H-[1,2,4]triazolo[4,3-a]-quinazolin-5-one]
178 | O=c1c2cc(Cl)ccc2n2c(N3CCCCC3)nnc2n1Cc1ccccc1 [Compound 174, 4-benzyl-7-chloro-1-(piperidin-1-yl)-4H-[1,2,4]triazolo[4,3-a]-quinazolin-5-one]
179 | Cn1c(=O)c2ccc(Cl)cc2n2c(N3CCCCCC3)nnc12 [Compound 175, 1-(azepan-1-yl)-8-chloro-4-methyl-4H-[1,2,4]triazolo[4,3-a]-quinazolin-5-one]
174 | Cn1c(=O)c2cc(Br)ccc2n2c(N3CCCCCC3)nnc12 [Compound 177, 1-(azepan-1-yl)-7-bromo-4-methyl-4H-[1,2,4]triazolo[4,3-a]-quinazolin-5-one]
183 to 185 | O=c1c2cc(Br)ccc2n2c(N3CCCCC3)nnc2n1Cc1ccccc1 [Compound 178, 4-benzyl-7-bromo-1-(piperidin-1-yl)-4H-[1,2,4]triazolo[4,3-a]-quinazolin-5-one]
171 | CN(C)c1nnc2n(Cc3ccccc3)c(=O)c3cc(Br)ccc3n12 [Compound 179, 4-Benzyl-7-bromo-1-dimethylamino-4H-[1,2,4]triazolo[4,3-a]quinazolin-5-one]
189 | O=c1c2cc(Br)ccc2n2c(N3CCOCC3)nnc2n1Cc1ccccc1 [Compound 180, 4-Benzyl-7-bromo-1-morpholin-4-yl-4H-[1,2,4]triazolo[4,3-a]quinazolin-5-one]
235 | O=c1c2cc(Br)ccc2n2c(N3CCSCC3)nnc2n1Cc1ccccc1 [Compound 181, 4-Benzyl-7-bromo-1-thiomorpholin-4-yl-4H-[1,2,4]triazolo[4,3-a]quinazolin-5-one]
